Experimental data from US10098924B1, “Anticancer extracts of Alpinia officinarum hance” (KING SAUD UNIVERSITY, priority 2018, dated 2018).
Structures can show the parent of a compound that is named as a salt.

Assays:
Assay type in all cases: cell-based
[1] = test system: A-549 (Lung carcinoma) cells; experiment: MTT cell viability assay, A-549 cells; conditions: Homo sapiens, A549, about 24 hours incubation
Experimental: (§1) Briefly, the cell lines were suspended in medium at concentration of about 5×10^4 cells per well in Corning® 96-well tissue culture plates and incubated for about 24 hours. Extracts prepared according to Example 1 were rehydrated, diluted ten times, and each dilution was added to a well of a 96-well plate (using six replicates). Six vehicle controls with media or 0.5% DMSO were run for each 96 well plate as a control. After incubation for about 24 hours, the number of viable cells was determined by the MTT assay method. Briefly, the media was removed from the 96-well plates and replaced with about 100 μl of fresh culture RPMI 1640 medium without phenol red, then about 10 μl of about 12 mM MTT (Sigma) stock solution (5 mg of MTT in about 1 mL of PBS) was added to each well, including the untreated controls. The 96-well plates were then incubated at about 37° C. and at about 5% CO2 for about 4 hours. An 85 μl aliquot of the media was removed from the wells, and 50 μl of DMSO was added to each well and mixed thoroughly with the pipette and incubated at about 37° C. for about 10 minutes. The optical density was measured at 590 nm with a microplate reader to determine the number of viable cells. The percentage of viability was calculated as: (ODt/ODc)×100%, where ODt is the mean optical density of wells treated with the tested sample and ODe is the mean optical density of untreated cells. […]

[2] = test system: HCT-116 (Colon carcinoma) cells; experiment: MTT cell viability assay, HCT-116 cells; conditions: Homo sapiens, about 24 hours incubation
Experimental: as §1

[3] = test system: CACO (colorectal carcinoma) cells; experiment: MTT cell viability assay, CACO cells; conditions: Homo sapiens, about 24 hours incubation
Experimental: as §1

[4] = test system: HeLa (Cervical carcinoma) cells; experiment: MTT cell viability assay, HeLa cells; conditions: Homo sapiens, about 24 hours incubation
Experimental: as §1

[5] = test system: PC3 (prostate cancer) cells; experiment: MTT cell viability assay, PC3 cells; conditions: Homo sapiens, PC-3, about 24 hours incubation
Experimental: as §1

For `CC[C@]1(O)C[C@@H]2CN(CCc3c([nH]c4ccccc34)[C@@](C(=O)OC)(c3cc4c(cc3OC)N(C)[C@H]3[C@@](O)(C(=O)OC)[C@H](OC(C)=O)[C@]5(CC)C=CCN6CC[C@]43[C@@H]65)C2)C1` [Vinblastine Sulfate, vinblastine sulfate], the IC50 [1] was 24.6 ± 0.7 µg/mL, the IC50 [2] was 3.5 ± 0.2 µg/mL and the IC50 [3] was 30.3 ± 1.4 µg/mL. It also gave an IC50 [4] of 59.7 ± 2.1 µg/mL and an IC50 [5] of 21.2 ± 0.9 µg/mL.
